Tests used:
Format in all cases: binding
Details in all cases: Compound Concentration 10 µM
[1] = biological target: T1, panel of 442 kinases (Homo sapiens, UniProt P00533, G719S)
T1 construct: purchased KINOMEscan
Source text: (§1) We assessed the selectivity of members of this scaffold using the KINOMEscan methodology across a near comprehensive panel of 442 kinases [[18,27]].

[2] = biological target: T2, panel of 442 kinases (Homo sapiens, UniProt P08069)
T2 construct: purchased KINOMEscan
Source text: as §1

[3] = biological target: T3, panel of 442 kinases (Homo sapiens, UniProt P08581)
T3 construct: purchased KINOMEscan
T3 sequence (P08581 25-1390): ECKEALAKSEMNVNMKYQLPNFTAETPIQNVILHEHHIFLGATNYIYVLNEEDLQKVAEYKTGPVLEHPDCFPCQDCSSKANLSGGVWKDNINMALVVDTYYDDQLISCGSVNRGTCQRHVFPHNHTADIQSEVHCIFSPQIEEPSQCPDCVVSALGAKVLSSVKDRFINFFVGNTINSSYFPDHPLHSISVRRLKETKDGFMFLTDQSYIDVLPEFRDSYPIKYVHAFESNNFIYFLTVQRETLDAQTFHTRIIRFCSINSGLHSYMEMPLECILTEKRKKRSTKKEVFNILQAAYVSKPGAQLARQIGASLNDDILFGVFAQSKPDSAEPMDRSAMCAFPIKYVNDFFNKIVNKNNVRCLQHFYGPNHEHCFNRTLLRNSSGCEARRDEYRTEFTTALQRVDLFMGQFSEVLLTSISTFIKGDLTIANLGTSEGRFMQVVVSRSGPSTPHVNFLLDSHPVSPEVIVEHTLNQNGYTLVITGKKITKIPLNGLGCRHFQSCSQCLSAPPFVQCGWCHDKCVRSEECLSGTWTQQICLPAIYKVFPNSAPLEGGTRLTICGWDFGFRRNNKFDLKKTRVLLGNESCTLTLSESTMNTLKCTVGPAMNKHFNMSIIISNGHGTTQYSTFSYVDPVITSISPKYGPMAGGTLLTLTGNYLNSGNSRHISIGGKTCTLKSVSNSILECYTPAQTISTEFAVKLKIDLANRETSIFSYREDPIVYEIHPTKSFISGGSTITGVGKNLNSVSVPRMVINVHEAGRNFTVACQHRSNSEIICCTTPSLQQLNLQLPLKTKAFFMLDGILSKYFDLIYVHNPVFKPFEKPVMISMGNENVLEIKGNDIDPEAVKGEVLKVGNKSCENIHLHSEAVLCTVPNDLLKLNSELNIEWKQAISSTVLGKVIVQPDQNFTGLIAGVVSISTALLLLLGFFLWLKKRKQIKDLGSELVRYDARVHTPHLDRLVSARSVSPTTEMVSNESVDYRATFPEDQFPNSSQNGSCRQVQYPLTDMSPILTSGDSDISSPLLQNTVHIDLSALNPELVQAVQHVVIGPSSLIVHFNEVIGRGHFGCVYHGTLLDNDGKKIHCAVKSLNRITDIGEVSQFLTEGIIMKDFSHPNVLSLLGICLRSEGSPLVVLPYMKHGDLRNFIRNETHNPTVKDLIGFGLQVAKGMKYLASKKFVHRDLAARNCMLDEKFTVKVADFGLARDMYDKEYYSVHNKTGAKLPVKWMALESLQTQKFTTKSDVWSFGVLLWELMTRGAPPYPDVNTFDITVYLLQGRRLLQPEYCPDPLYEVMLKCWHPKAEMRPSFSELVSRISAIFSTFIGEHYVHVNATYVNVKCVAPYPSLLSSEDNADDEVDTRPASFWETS
Source text: as §1

[4] = biological target: T4, panel of 442 kinases (Homo sapiens, UniProt P42336, E542K)
T4 construct: purchased KINOMEscan
T4 sequence (P42336 whole entry E542K): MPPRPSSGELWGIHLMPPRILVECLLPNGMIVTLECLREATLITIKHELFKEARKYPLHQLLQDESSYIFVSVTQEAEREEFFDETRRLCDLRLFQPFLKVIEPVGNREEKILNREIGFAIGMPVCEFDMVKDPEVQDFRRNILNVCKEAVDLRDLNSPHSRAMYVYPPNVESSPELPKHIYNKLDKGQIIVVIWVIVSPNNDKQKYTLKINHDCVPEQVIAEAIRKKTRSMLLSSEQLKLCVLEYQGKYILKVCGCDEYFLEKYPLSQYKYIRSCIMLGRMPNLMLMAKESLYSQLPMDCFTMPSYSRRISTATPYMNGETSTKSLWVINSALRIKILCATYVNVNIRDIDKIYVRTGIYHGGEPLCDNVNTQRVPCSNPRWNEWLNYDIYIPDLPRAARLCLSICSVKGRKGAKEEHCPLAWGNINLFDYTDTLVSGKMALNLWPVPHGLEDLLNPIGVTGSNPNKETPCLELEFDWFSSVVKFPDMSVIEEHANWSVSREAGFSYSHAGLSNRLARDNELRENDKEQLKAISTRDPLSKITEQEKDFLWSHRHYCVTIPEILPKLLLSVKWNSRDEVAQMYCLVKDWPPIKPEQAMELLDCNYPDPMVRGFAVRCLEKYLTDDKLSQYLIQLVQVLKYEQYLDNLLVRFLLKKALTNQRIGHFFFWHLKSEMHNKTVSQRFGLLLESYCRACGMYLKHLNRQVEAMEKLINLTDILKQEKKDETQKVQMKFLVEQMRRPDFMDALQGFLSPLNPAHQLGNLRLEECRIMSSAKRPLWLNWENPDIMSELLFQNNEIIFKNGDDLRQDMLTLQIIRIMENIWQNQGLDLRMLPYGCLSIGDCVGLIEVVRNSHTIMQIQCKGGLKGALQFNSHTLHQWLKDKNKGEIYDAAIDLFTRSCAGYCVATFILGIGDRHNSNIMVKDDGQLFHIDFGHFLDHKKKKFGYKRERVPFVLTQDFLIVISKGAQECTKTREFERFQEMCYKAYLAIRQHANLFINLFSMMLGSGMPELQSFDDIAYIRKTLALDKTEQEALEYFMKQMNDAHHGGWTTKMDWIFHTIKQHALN
Source text: as §1

T1 sequence (P00533 25-1210 G719S): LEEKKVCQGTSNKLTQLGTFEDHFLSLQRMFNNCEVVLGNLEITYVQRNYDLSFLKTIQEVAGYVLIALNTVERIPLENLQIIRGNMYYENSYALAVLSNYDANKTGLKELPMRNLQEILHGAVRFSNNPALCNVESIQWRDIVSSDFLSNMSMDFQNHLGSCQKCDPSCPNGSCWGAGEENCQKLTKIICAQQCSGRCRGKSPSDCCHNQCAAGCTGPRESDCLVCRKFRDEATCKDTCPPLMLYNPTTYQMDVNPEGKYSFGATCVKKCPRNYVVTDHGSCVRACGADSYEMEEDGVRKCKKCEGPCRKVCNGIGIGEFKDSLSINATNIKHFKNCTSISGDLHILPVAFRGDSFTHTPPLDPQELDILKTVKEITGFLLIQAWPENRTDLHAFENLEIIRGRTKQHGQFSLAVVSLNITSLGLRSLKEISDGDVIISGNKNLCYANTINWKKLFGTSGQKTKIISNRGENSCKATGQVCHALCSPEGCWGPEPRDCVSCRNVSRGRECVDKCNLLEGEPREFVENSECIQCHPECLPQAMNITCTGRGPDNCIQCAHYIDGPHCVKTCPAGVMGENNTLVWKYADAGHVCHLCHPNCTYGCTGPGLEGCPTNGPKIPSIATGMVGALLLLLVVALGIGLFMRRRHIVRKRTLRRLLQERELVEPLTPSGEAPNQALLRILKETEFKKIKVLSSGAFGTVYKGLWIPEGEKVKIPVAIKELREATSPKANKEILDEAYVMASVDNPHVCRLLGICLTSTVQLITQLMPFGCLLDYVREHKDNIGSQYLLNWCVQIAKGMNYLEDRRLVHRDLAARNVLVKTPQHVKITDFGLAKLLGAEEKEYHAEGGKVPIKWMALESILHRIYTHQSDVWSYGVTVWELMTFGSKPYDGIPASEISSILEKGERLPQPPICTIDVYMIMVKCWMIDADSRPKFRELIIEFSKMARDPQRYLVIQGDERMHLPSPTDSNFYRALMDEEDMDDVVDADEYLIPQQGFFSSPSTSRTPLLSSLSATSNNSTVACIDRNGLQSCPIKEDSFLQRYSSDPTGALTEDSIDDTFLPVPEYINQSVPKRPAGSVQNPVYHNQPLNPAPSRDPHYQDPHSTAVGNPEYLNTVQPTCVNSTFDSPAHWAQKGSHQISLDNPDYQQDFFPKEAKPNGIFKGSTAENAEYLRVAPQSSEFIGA
T2 sequence (P08069 31-1367): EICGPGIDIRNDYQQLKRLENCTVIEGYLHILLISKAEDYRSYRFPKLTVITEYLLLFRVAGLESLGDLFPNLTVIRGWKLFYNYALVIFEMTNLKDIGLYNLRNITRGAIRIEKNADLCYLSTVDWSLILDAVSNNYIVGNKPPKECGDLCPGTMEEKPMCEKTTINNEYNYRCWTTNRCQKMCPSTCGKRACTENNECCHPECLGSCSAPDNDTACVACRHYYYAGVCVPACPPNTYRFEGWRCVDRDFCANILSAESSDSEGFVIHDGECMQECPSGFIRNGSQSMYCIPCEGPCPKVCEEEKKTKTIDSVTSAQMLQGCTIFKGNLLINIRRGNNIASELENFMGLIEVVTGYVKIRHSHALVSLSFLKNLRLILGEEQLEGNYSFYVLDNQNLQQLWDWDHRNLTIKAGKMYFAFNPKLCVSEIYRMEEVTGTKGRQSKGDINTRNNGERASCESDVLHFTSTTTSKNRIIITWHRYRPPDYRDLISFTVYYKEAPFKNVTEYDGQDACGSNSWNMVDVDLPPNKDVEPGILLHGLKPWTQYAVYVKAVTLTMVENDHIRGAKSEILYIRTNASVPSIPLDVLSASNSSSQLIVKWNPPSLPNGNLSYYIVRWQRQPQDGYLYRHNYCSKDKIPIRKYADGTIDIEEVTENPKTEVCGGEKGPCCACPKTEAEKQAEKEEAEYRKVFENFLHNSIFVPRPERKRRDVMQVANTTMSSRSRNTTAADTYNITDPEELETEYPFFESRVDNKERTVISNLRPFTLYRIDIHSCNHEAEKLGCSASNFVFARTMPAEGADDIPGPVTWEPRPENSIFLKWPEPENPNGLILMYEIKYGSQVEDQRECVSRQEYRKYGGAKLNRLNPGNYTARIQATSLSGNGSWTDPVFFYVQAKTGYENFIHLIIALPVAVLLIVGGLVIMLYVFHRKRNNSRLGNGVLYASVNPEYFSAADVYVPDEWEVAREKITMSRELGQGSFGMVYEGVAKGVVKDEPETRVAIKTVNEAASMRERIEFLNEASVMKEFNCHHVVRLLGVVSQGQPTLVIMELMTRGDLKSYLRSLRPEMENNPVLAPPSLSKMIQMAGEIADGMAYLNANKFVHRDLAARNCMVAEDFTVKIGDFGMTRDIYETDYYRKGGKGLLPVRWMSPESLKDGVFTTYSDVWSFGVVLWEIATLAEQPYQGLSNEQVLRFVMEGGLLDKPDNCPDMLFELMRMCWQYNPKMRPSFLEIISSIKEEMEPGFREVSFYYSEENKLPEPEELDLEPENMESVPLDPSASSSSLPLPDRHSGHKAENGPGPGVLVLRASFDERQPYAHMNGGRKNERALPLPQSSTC

| SMILES | KINOMEscan: EGFR(G719S) [1] | KINOMEscan: IGF1R [2] | KINOMEscan: MET [3] | KINOMEscan: PIK3CA(E542K) [4] |
| --- | --- | --- | --- | --- |
| COc1cc(C(=O)N2CCC(N3CCN(C)CC3)CC2)ccc1Nc1ncc2c(n1)N(C)c1ccccc1C(=O)N2C [15 (LRRK2-IN-1)] | 86 | 96 | 100 | 77 |
| COc1cc(C(=O)N2CCC(N3CCN(C)CC3)CC2)ccc1Nc1ncc2c(n1)N1CCc3cccc(c31)C(=O)N2C [Compound 24] | 81 | – | – | – |
| COc1cc(C(=O)N2CCC(N3CCN(C)CC3)CC2)ccc1Nc1ncc2c(n1)N(C1CCCC1)c1ccccc1C(=O)N2C [Compound 25, 11-cyclopentyl-2-((2-methoxy-4-(4-(4-methylpiperazin-1-yl)piperidine-1-carbonyl)phenyl)amino)-5-methyl-5H-benzo[e]pyrimido[5,4-b][1,4]diazepin-6(11H)-one] | 86 | 89 | 97 | 98 |
| CCOc1cc(C(=O)N2CCC(N3CCN(C)CC3)CC2)ccc1Nc1ncc2c(n1)N(C1CCCC1)c1ccccc1C(=O)N2C [Compound 26] | 96 | 100 | 100 | 100 |

Source: PMC3914206
